Target: T1, human Nav1.7 channels (Homo sapiens, UniProt Q15858)
T1 construct: host or cells: HEK293
Assay: hNav1.7 channel assay, whole cell patch clamp, two-pulse protocol
Format: cell-based
Details: TP2 (inactivated phase inhibition), HEK293 cells stably expressing human Nav1.7, read-out: Inhibition activity: percent inhibition on the inactivated state of hNav1.7
From the text: Whole cell patch clamp technique was used to investigate the inhibitory effects of the compound of Examples on human Nav1.7 channels, stably expressed in HEK293 cells. Human Nav1.7 recombinant cell line (CYL3011-precisION) was purchased from Eurofins.
Two-pulse protocol was used every 10 seconds to assess the state-dependent inhibition by Examples. From the holding potential of −90 mV, pre-pulse (200 ms at −120 mV) was followed by test pulse1 ([…]), then test pulse2 (TP2: 20 ms at 0 mV) was evoked after inter-pulse (20 ms at −100 mV).
Peak current amplitudes were measured for test pulses TP1 (resting phase inhibition) and TP2 (inactivated phase inhibition). The following solutions were used for screening assay: External (mM): 145 NaCl, 1 MgCl2, 1.8 CaCl2, 10 Hepes, 5 Glucose, pH 7.4, 300 mOsm; Internal (mM): 120 CsF, 10 NaCl, 10 EGTA, 10 HEPES, pH 7.2, 290 mOsm.
The inhibition on the inactivated state of hNav1.7 was calculated as: % inhibition (inactivation state)=(1−(ITP2, TA/ITP2, Control)×100%, where ITP2 (the inward peak Na+ currents), Control and ITP2, TA were elicited by the TP2 in control (vehicle only) and in the presence of a test article (TA) indicating Examples, respectively.

T1 sequence (Q15858 whole entry): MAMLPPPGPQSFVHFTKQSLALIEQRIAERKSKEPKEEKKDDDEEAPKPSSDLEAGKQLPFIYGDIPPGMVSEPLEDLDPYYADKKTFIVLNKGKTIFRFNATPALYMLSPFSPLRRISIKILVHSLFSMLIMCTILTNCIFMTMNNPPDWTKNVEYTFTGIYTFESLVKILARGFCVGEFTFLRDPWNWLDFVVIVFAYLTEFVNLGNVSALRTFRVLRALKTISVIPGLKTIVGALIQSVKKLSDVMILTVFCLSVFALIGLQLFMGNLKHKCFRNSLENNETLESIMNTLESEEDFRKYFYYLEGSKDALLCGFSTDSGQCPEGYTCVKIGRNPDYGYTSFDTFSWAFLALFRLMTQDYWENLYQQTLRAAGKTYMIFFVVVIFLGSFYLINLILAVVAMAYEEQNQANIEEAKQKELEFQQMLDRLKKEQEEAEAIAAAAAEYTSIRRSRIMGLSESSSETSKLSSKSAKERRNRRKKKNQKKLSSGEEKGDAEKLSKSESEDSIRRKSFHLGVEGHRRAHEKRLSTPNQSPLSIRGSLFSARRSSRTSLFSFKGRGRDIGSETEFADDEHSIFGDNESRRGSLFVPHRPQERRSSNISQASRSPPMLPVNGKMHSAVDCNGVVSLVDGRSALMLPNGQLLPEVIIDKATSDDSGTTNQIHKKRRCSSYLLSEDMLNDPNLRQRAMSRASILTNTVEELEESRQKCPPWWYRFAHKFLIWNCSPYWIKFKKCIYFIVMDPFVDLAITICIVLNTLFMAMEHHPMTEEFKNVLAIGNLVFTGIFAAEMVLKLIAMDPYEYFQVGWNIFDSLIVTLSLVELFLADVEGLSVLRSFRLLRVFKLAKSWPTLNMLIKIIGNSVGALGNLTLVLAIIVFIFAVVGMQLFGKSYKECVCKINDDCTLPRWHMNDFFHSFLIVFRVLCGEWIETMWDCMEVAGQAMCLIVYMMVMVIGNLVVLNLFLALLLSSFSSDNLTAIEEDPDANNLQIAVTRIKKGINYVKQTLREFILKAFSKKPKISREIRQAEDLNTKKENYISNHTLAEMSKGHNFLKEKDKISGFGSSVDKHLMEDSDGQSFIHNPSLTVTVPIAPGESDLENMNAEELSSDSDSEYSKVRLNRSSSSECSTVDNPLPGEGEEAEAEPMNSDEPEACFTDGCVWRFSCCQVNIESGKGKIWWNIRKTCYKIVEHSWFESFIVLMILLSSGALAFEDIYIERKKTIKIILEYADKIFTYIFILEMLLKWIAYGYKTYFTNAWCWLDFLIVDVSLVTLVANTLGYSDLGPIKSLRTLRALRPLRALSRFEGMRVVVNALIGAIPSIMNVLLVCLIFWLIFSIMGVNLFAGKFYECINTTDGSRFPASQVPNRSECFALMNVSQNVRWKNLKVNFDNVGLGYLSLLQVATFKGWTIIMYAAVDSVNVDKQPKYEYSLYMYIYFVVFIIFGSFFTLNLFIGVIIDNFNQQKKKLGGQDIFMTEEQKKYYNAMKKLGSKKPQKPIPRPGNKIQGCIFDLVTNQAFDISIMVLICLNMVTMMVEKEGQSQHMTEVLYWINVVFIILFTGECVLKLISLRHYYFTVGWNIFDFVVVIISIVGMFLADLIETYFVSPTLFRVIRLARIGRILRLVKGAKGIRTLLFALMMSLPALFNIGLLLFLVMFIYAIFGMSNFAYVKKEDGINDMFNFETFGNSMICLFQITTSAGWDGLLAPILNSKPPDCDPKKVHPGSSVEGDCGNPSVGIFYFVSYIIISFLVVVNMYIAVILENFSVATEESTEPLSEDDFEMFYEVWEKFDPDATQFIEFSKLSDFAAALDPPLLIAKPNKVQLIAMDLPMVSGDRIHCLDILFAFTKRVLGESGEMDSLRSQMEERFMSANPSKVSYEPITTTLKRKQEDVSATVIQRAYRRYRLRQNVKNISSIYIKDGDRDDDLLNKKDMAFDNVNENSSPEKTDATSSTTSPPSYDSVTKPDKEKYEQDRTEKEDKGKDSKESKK

| Compound | inhibition at 10 µM |
| --- | --- |
| O=C(NCc1cccc[n+]1[O-])c1cccc(-c2cccc(Cl)c2)c1 [Example 4, 3-(3-chlorophenyl)-N-[(1-oxidopyridin-1-ium-2-yl)methyl]benzamide] | 40 to 70% |
| CC(C)c1ccc(-c2cccc(C(=O)NCc3cccc[n+]3[O-])c2)cc1 [Example 24, 3-(4-isopropylphenyl)-N-[(1-oxidopyridin-1-ium-2-yl)methyl]benzamide] | 10 to 40% |
| CC(C)(C)c1ccc(-c2cccc(C(=O)NCc3cccc[n+]3[O-])c2)cc1 [Example 13, 3-(4-tert-butylphenyl)-N-[(1-oxidopyridin-1-ium-2-yl)methyl]benzamide] | 40 to 70% |
| CC(C)(O)c1ccc(-c2cccc(C(=O)NCc3cccc[n+]3[O-])c2)cc1 [Example 44, 3-[4-(1-hydroxy-1-methyl-ethyl)phenyl]-N-[(1-oxidopyridin-1-ium-2-yl)methyl]benzamide] | 70 to 100% |
| O=C(NCc1cccc[n+]1[O-])c1cccc(-c2ccc(C(F)(F)F)cc2F)c1 [Example 16, 3-[2-fluoro-4-(trifluoromethyl)phenyl]-N-[(1-oxidopyridin-1-ium-2-yl)methyl]benzamide] | 40 to 70% |
| Cc1cc(-c2cccc(C(=O)NCc3cccc[n+]3[O-])c2)ccc1Cl [Example 28, 3-(4-chloro-3-methyl-phenyl)-N-[(1-oxidopyridin-1-ium-2-yl)methyl]benzamide] | 70 to 100% |
| O=C(NCc1ccc(F)c[n+]1[O-])c1cccc(-c2ccc(Cl)cc2)c1 [Example 61, 3-(4-chlorophenyl)-N-[(5-fluoro-1-oxido-pyridin-1-ium-2-yl)methyl]benzamide] | 70 to 100% |
| O=C(NCc1cccc[n+]1[O-])c1cccc(-c2cc(F)cc(C(F)(F)F)c2)c1 [Example 41, 3-[3-fluoro-5-(trifluoromethyl)phenyl]-N-[(1-oxidopyridin-1-ium-2-yl)methyl]benzamide] | 10 to 40% |
| O=C(NCc1cccc[n+]1[O-])c1cc(-c2ccc(F)c(F)c2)ccc1F [Example 54, 5-(3,4-difluorophenyl)-2-fluoro-N-[(1-oxidopyridin-1-ium-2-yl)methyl]benzamide] | 70 to 100% |
| O=C(NCc1cccc[n+]1[O-])c1cccc(-c2ccccc2)c1 [Example 12, N-[(1-oxidopyridin-1-ium-2-yl)methyl]-3-phenyl-benzamide] | 40 to 70% |
| O=C(NCc1cccc[n+]1[O-])c1cccc(-c2ccc(Cl)cc2Cl)c1 [Example 9, 3-(2,4-dichlorophenyl)-N-[(1-oxidopyridin-1-ium-2-yl)methyl]benzamide] | 70 to 100% |
| O=C(NCc1cccc[n+]1[O-])c1cccc(-c2ccc(F)c(Cl)c2)c1 [Example 17, 3-(3-chloro-4-fluoro-phenyl)-N-[(1-oxidopyridin-1-ium-2-yl)methyl]benzamide] | 40 to 70% |
| COc1cc(F)c(F)cc1-c1cccc(C(=O)NCc2cccc[n+]2[O-])c1 [Example 47, 3-(4,5-difluoro-2-methoxy-phenyl)-N-[(1-oxidopyridin-1-ium-2-yl)methyl]benzamide] | 10 to 40% |
| O=C(NCc1cccc[n+]1[O-])c1cccc(-c2ccc(F)cc2F)c1 [Example 31, 3-(2,4-difluorophenyl)-N-[(1-oxidopyridin-1-ium-2-yl)methyl]benzamide] | 40 to 70% |
| O=C(NCc1cccc[n+]1[O-])c1cccc(-c2ccc(C(F)(F)F)c(F)c2)c1 [Example 42, 3-[3-fluoro-4-(trifluoromethyl)phenyl]-N-[(1-oxidopyridin-1-ium-2-yl)methyl]benzamide] | 40 to 70% |
| COc1cc(Cl)ccc1-c1cccc(C(=O)NCc2cccc[n+]2[O-])c1 [Example 26, 3-(4-chloro-2-methoxy-phenyl)-N-[(1-oxidopyridin-1-ium-2-yl)methyl]benzamide] | 10 to 40% |
| Cc1cc(C(F)(F)F)ccc1-c1cccc(C(=O)NCc2cccc[n+]2[O-])c1 [Example 38, 3-[2-methyl-4-(trifluoromethyl)phenyl]-N-[(1-oxidopyridin-1-ium-2-yl)methyl]benzamide] | 40 to 70% |
| Cc1cccc(-c2cccc(C(=O)NCc3cccc[n+]3[O-])c2)c1 [Example 23, 3-(m-tolyl)-N-[(1-oxidopyridin-1-ium-2-yl)methyl]benzamide] | 40 to 70% |
| Cc1cc(-c2cccc(C(=O)NCc3cccc[n+]3[O-])c2)ccc1C(F)(F)F [Example 43, 3-[3-methyl-4-(trifluoromethyl)phenyl]-N-[(1-oxidopyridin-1-ium-2-yl)methyl]benzamide] | 70 to 100% |
| O=C(NCc1cccc[n+]1[O-])c1cc(-c2ccc(C(F)(F)F)cc2)ccc1F [Example 57, 2-fluoro-N-[(1-oxidopyridin-1-ium-2-yl)methyl]-5-[4-(trifluoromethyl)phenyl]benzamide] | 70 to 100% |
| COc1ccccc1-c1cccc(C(=O)NCc2cccc[n+]2[O-])c1 [Example 40, 3-(2-methoxyphenyl)-N-[(1-oxidopyridin-1-ium-2-yl)methyl]benzamide] | 70 to 100% |
| COc1cc(OC(F)(F)F)ccc1-c1ccc(F)c(C(=O)NCc2cccc[n+]2[O-])c1 [Example 56, 2-fluoro-5-[2-methoxy-4-(trifluoromethoxy)phenyl]-N-[(1-oxidopyridin-1-ium-2-yl)methyl]benzamide] | 70 to 100% |
| O=C(NCc1cccc[n+]1[O-])c1cccc(-c2cc(Cl)ccc2Cl)c1 [Example 10, 3-(2,5-dichlorophenyl)-N-[(1-oxidopyridin-1-ium-2-yl)methyl]benzamide] | 40 to 70% |
| O=C(NCc1cccc[n+]1[O-])c1cccc(-c2ccccc2Cl)c1 [Example 20, 3-(2-chlorophenyl)-N-[(1-oxidopyridin-1-ium-2-yl)methyl]benzamide] | 40 to 70% |
| O=C(NCc1cccc[n+]1[O-])c1cccc(-c2ccc(F)c(C(F)(F)F)c2)c1 [Example 39, 3-[4-fluoro-3-(trifluoromethyl)phenyl]-N-[(1-oxidopyridin-1-ium-2-yl)methyl]benzamide] | 70 to 100% |
| O=C(NCc1cccc[n+]1[O-])c1cccc(-c2cc(F)c(F)c(F)c2)c1 [Example 33, N-[(1-oxidopyridin-1-ium-2-yl)methyl]-3-(3,4,5-trifluorophenyl)benzamide] | 10 to 40% |
| O=C(NCc1cccc[n+]1[O-])c1cc(-c2ccc(Cl)cc2C(F)(F)F)ccc1F [Example 55, 5-[4-chloro-2-(trifluoromethyl)phenyl]-2-fluoro-N-[(1-oxidopyridin-1-ium-2-yl)methyl]benzamide] | 40 to 70% |
| O=C(NCc1cccc[n+]1[O-])c1cc(-c2ccc(OC(F)(F)F)cc2)ccc1F [Example 58, 2-fluoro-N-[(1-oxidopyridin-1-ium-2-yl)methyl]-5-[4-(trifluoromethoxy)phenyl]benzamide] | 70 to 100% |
| O=C(NCc1cccc[n+]1[O-])c1cccc(-c2ccc(C3CC3)cc2)c1 [Example 36, 3-(4-cyclopropylphenyl)-N-[(1-oxidopyridin-1-ium-2-yl)methyl]benzamide] | 40 to 70% |
| O=C(NCc1cccc[n+]1[O-])c1cccc(-c2ccc(Cl)c(Cl)c2)c1 [Example 6, 3-(3,4-dichlorophenyl)-N-[(1-oxidopyridin-1-ium-2-yl)methyl]benzamide] | 70 to 100% |
